Source: PubChem BioAssay (NCI)
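Each compound was tested at five concentrations against cells in 96-well plates for 48 hours. GI50 is the concentration that inhibits growth by half. TGI marks complete inhibition of growth.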

Columns and labels:
Assay in all cases: NCI tumour cell line growth inhibition, 48 h
HCT-15 colon = test system: HCT-15 colon
KM12 colon = test system: KM12 colon
SF-295 CNS = test system: SF-295 CNS
SN12C renal = test system: SN12C renal
SW-620 colon = test system: SW-620 colon
UO-31 renal = test system: UO-31 renal
DU-145 prostate = test system: DU-145 prostate
OVCAR-4 ovarian = test system: OVCAR-4 ovarian
SNB-75 CNS = test system: SNB-75 CNS
CAKI-1 renal = test system: CAKI-1 renal

SMILES | TGI (HCT-15 colon) [µM] | TGI (KM12 colon) [µM] | TGI (SF-295 CNS) [µM] | TGI (SN12C renal) [µM] | TGI (SW-620 colon) [µM] | TGI (UO-31 renal) [µM] | GI50 (DU-145 prostate) [µM] | TGI (DU-145 prostate) [µM] | GI50 (HCT-15 colon) [µM] | GI50 (KM12 colon) [µM] | GI50 (OVCAR-4 ovarian) [µM] | TGI (OVCAR-4 ovarian) [µM] | GI50 (SF-295 CNS) [µM] | GI50 (SN12C renal) [µM] | GI50 (SW-620 colon) [µM] | GI50 (UO-31 renal) [µM] | TGI (SNB-75 CNS) [µM] | TGI (CAKI-1 renal) [µM] | GI50 (CAKI-1 renal) [µM] | GI50 (SNB-75 CNS) [µM]
CCC1OCCN1C(C)C (stereo unspecified) | > 100 | > 100 | > 100 | > 100 | > 100 | > 100 | – | – | – | – | – | – | – | – | – | – | – | – | – | –
COc1ccc(C2=CC(c3cc(OC)c(OC)c(OC)c3)n3ncnc3N2)cc1 (stereo unspecified) | > 100 | 18.9 | 0.0742 | > 100 | > 100 | 66.4 | 0.0648 | 97.8 | 0.042 | 0.0402 | 0.391 | 39.5 | 0.0228 | 0.141 | 0.0484 | 10 | – | – | – | –
CCOC(=O)CCC1(C(=O)OC)CCCC1=O (stereo unspecified) | – | > 100 | > 100 | – | > 100 | > 100 | – | – | – | – | – | – | – | – | – | – | > 100 | – | – | –
Cc1ccc(NC(=O)CCC(=O)C2CC(=O)CC/C2=N\NC(=O)c2cc3ccccc3cc2O)cc1C (stereo unspecified) | > 100 | > 100 | > 100 | > 100 | > 100 | 59.3 | – | – | – | – | – | 51.4 | – | – | – | – | > 100 | > 100 | – | –
CC(=O)[CH-]C(=O)c1ccccc1.CC(=O)[CH-]C(=O)c1ccccc1.[O]=[U+2]=[O] | > 100 | 9.83 | > 100 | > 100 | > 100 | – | – | – | 35.1 | 3.67 | 40.3 | > 100 | 6.55 | 56 | 35.3 | – | 98.7 | > 100 | 39.2 | 23
N#CC1c2ccccc2-c2ccccc2N1C(=O)c1ccccc1 (stereo unspecified) | > 100 | 4.17 | > 100 | > 92.2 | > 100 | > 59.4 | 1.72 | 4.21 | 1.38 | 1.16 | 3.29 | > 72.3 | 2.63 | 3.86 | 0.585 | 3.63 | > 49.4 | – | – | 2.43
CC1OC(=O)N(CCCC=C2SCCCS2)C1=O (stereo unspecified) | > 100 | > 100 | > 100 | > 100 | > 100 | > 100 | – | – | – | – | – | > 100 | – | – | – | – | > 100 | – | – | –
C/C(=N\NS(=O)(=O)c1ccc(C)cc1)c1ccc[n+]([O-])n1 | > 100 | > 100 | > 100 | > 100 | > 100 | > 100 | – | – | – | – | – | > 100 | – | – | – | – | > 100 | 85.3 | – | –
O=C(/C=C/N1CCN(c2cccc(C(F)(F)F)c2)CC1)c1ccc(Cl)cc1Cl | 53.9 | 75.9 | 32.4 | 40.6 | > 100 | > 100 | 35.1 | > 100 | 26.8 | 28.1 | 25.1 | 53.2 | 14.7 | 21.3 | 38.8 | 31.3 | – | 41.3 | 22.7 | –
CC(C)c1ccc(/C=C(\NC(=O)c2ccccc2)c2nc3ccccc3[nH]2)cc1 | > 100 | > 100 | – | > 100 | > 100 | > 100 | – | – | – | – | – | > 100 | – | – | – | – | > 100 | > 100 | – | –
CC1=C(C#N)C(N)=C2C(C)=C(C#N)C(N)=C12 | > 100 | > 100 | > 100 | > 100 | > 100 | > 100 | – | – | – | – | – | > 100 | – | – | – | – | > 100 | > 100 | – | –
Cc1cc(N(CCC#N)S(=O)(=O)c2ccccc2)ccc1C=O | > 100 | > 100 | > 100 | > 100 | > 100 | > 100 | – | – | – | – | – | > 100 | – | – | – | – | > 100 | > 100 | – | –
CCOC(=O)/C=C1\Nc2ccccc2C(c2ccccc2)=NC1OC(C)=O (stereo unspecified) | > 100 | > 100 | > 100 | > 100 | > 100 | > 100 | – | – | – | – | – | > 100 | – | – | – | – | > 100 | > 100 | – | –
COC(=O)C(CC=O)C(=O)C(=O)Nc1cccc(C(F)(F)F)c1 (stereo unspecified) | > 100 | > 100 | > 100 | > 100 | > 100 | > 100 | – | – | – | – | – | > 100 | – | – | – | – | – | > 100 | – | –
COc1ccc2cccc(C(=N)c3ccc(C)c4c3CCC4)c2c1 | 20.6 | 22.9 | 17.7 | 24.5 | 18.7 | 16.2 | – | – | – | – | – | 24.9 | – | – | – | – | 27.2 | 16.1 | – | –
COc1cc2c3c(c1OC)-c1ccccc1C(C(OC(C)=O)c1ccccc1)C3N(C)CC2 (stereo unspecified) | > 100 | > 100 | > 100 | > 100 | > 100 | > 100 | – | – | – | – | – | > 100 | – | – | – | – | > 100 | > 100 | – | –
CC1CCC(O)C(C(O)CC2CC(=O)N(C)C(=O)C2)C1 (stereo unspecified) | – | > 100 | > 100 | > 100 | > 100 | > 100 | – | – | – | – | – | > 100 | – | – | – | – | > 100 | > 100 | – | –
O=C(OCc1ccccc1CN1CCOCC1)c1ccc(Br)cc1 | > 100 | – | – | > 100 | > 100 | > 100 | – | > 100 | – | – | – | > 100 | – | – | – | – | > 100 | – | – | –
O=C(Oc1c(I)ccccc1=O)c1ccc([N+](=O)[O-])cc1 | 31.7 | 35.6 | 62.1 | 67.9 | 83.6 | 68.9 | – | 26.8 | – | – | – | – | – | – | – | – | – | 55.1 | – | –
Brc1ccc2c(c1)C1(c3cc(Br)ccc3-2)c2cc(Br)ccc2-c2ccc(Br)cc21 | > 100 | > 100 | > 100 | > 100 | > 100 | > 100 | – | – | – | – | – | > 100 | – | – | – | – | – | > 100 | – | –
O=C(CCCCCCCCCCc1ccccc1)c1c(O)cccc1O | 38.7 | 33.2 | 47 | 34.6 | 34.7 | 38.7 | – | – | – | – | – | 57.5 | – | – | – | – | 63.8 | 74.8 | – | –
